Key:
[1] = Reduction of oxidized coenzyme Q10 by amino acid in condensed ricinoleate (CR-310)/MCT, HPLC proportion of reduced coenzyme Q10; settings: condensed ricinoleate (CR-310) and MCT, 80° C., 16 hours, nitrogen atmosphere; for Comparative Example 5: proportion of reduced coenzyme Q10: 6 equivalents amino acid
Procedure: (§1) The purity of reduced coenzyme Q10 and the weight ratio of reduced coenzyme Q10 to oxidized coenzyme Q10 were determined by HPLC analysis in the Examples.
(§2) Column: […] C18 (Waters): 250 mm (length)×4.6 mm (inner diameter); mobile phase: C2H5OH:CH3OH=4:3 (v:v); detection wavelength: 210 nm; flow rate: 1 ml/min; retention time for reduced coenzyme Q10: 9.1 min.; retention time for oxidized coenzyme Q10: 13.3 min.
Crystalline oxidized coenzyme Q10 (0.3 g (i.e. 0.36 mmol)) and tryptophan (6 equivalents (i.e., 2.16 mmol)) were added to a liquid mixture of condensed ricinoleate (CR-310, Sakamoto Yakuhin Kogyo Co., Ltd.) (3.8 g) and MCT (3.8 g). The obtained mixture was stirred and heated at 80° C. for 16 hours under a nitrogen atmosphere. The reaction solution was analyzed by HPLC after the reaction.
Crystalline oxidized coenzyme Q10 (0.3 g (i.e., 0.36 mmol)) was added to a liquid mixture of condensed ricinoleate (CR-310, Sakamoto Yakuhin Kogyo Co., Ltd.) (3.8 g) and MCT (3.8 g). One of the amino acids (6 equivalents (i.e., 2.16 mmol) each) listed in table 3 was separately added thereto. The obtained mixtures were stirred and heated at 80° C. for 16 hours under a nitrogen atmosphere.

[2] = Reduction of oxidized coenzyme Q10 by amino acid in ethanol, HPLC proportion of reduced coenzyme Q10; settings: 78° C., 16 hours, nitrogen atmosphere; for Comparative Example 2: proportion of reduced coenzyme Q10: 6 equivalents amino acid; for Proportion of reduced coenzyme Q10: Example 1: 6 equivalents amino acid
Procedure: as §1
Crystalline oxidized coenzyme Q10 (0.3 g (i.e., 0.36 mmol)) was added to ethanol (4.5 g). […] The obtained mixtures were stirred and heated at 78° C. for 16 hours under a nitrogen atmosphere.

[3] = Reduction of oxidized coenzyme Q10 by amino acid in Span 80/glycerin/Tween 80/MCT, HPLC proportion of reduced coenzyme Q10; settings: Span 80, glycerin, Tween 80, MCT, 80° C., 16 hours, nitrogen atmosphere; for Comparative Example 3: proportion of reduced coenzyme Q10: 6 equivalents amino acid; for Proportion of reduced coenzyme Q10: Example 2 / Comparative Example 1: 6 equivalents
Procedure: as §1, §2
Crystalline oxidized coenzyme Q10 (0.3 g (i.e., 0.36 mmol)) and tryptophan (6 equivalents (i.e., 2.16 mmol)) were added to a liquid mixture of Span 80 (0.4 g), glycerin (0.3 g), Tween 80 (4.9 g), and MCT (1.4 g). The obtained mixture was stirred and heated at 80° C. for 16 hours under a nitrogen atmosphere.
(§3) Crystalline oxidized coenzyme Q10 (0.3 g (i.e., 0.36 mmol)) was added to a liquid mixture of Span 80 (0.4 g), glycerin (0.3 g), Tween 80 (4.9 g), and MCT (1.4 g). L-cysteine or N-acetylcysteine (6 equivalents (i.e., 2.16 mmol) each) was separately added thereto. The obtained mixtures were stirred and heated at 80° C. for 16 hours under a nitrogen atmosphere.
as §3, with “One of the amino acids” for “L-cysteine or N-acetylcysteine”, “each) listed in table 3” for “each)”

[4] = Reduction of oxidized coenzyme Q10 by amino acid in limonene, HPLC proportion of reduced coenzyme Q10; settings: 85° C., 16 hours, nitrogen atmosphere; for Comparative Example 4: proportion of reduced coenzyme Q10: 6 equivalents amino acid; for proportions of reduced coenzyme Q10: Example 3: 6 equivalents
Procedure: as §1, §2
Crystalline oxidized coenzyme Q10 (0.3 g (i.e. 0.36 mmol)) was added to limonene (4.5 g). Proline (6 equivalents (i.e., 2.16 mmol)) or serine (6 equivalents (i.e. 2.16 mmol)) was separately added thereto. The obtained mixtures were stirred and heated at 85° C. for 16 hours under a nitrogen atmosphere. The reaction solutions were analyzed by HPLC after the reaction.
Crystalline oxidized coenzyme Q10 (0.3 g (i.e., 0.36 mmol)) was added to limonene (4.5 g). One of the amino acids (6 equivalents (i.e., 2.16 mmol) each) listed in table 3 was separately added thereto. The obtained mixtures were stirred and heated at 85° C. for 16 hours under a nitrogen atmosphere.

Compound	Comparative Example 5: proportion of reduced coenzyme Q10 [1]	Comparative Example 2: proportion of reduced coenzyme Q10 [2]	Comparative Example 3: proportion of reduced coenzyme Q10 [3]	Comparative Example 4: proportion of reduced coenzyme Q10 [4]	Proportion of reduced coenzyme Q10 [2]	also measured
C[C@H](N)C(=O)O [Alanine]	0%	0%	0%	0%	–	–
N=C(N)NCCC[C@H](N)C(=O)O [Arginine]	–	–	–	–	35% by weight	–
NCC(=O)O [Glycine]	1%	0%	0%	0%	–	–
CC[C@H](C)[C@H](N)C(=O)O [Isoleucine]	0%	1%	1%	0%	–	–
N[C@@H](CS)C(=O)O [L-cysteine]	–	–	–	–	–	Proportion of reduced coenzyme Q10 [3]: 7% by weight
CC(=O)N[C@@H](CS)C(=O)O [N-acetylcysteine]	–	–	–	–	–	Proportion of reduced coenzyme Q10 [3]: 3% by weight
O=C(O)[C@@H]1CCCN1 [Proline]	–	–	–	–	6% by weight	proportions of reduced coenzyme Q10 [4]: 8 % by weight
N[C@@H](CO)C(=O)O [Serine]	–	–	–	–	5% by weight	proportions of reduced coenzyme Q10 [4]: 3 % by weight
N[C@@H](Cc1c[nH]c2ccccc12)C(=O)O [Tryptophan]	–	–	–	–	21% by weight	Proportion of reduced coenzyme Q10 ([1]; Example 4: 6 equivalents): 5 % by weight; Proportion of reduced coenzyme Q10 [3]: 33% by weight
CC(C)[C@H](N)C(=O)O [Valine]	0%	1%	0%	0%	–	–
Lysine•n hydrate	–	–	–	–	69% by weight	–

Reference: patent US9040747B2, “Method for producing reduced coenzyme Q10, method for stabilizing same, and composition comprising same” (Kaneka Corporation, priority 2009, dated 2015)
